Experimental data reported in US4001272A, “Herbicidal 2-fluoro-4-halo-phenyl-4,5,6,7-tetrahydro-2H-isoindole-1,3-diones” (E. I. Du Pont de Nemours and Company, priority 1974, dated 1977).

How the values were obtained:
Type in all cases: in vivo
[1] = system: crabgrass (Digitaria sanquinalis); assay: Test C: preemergence weed control in rice, crabgrass; conditions: 29 days after treatment
Excerpt: (§1) In test A, soybeans, peanuts, lima beans, green beans and squash were planted in a field infested with the following weed seeds: crabgrass (Digitaria sanquinalis), foxtails (Setaria spp.), barnyardgrass (Echinochloa crusgalli), pigweed (Amaranthus spp.), ragweed (Ambrosia artemisiifolia), velvetleaf (Abutilon theophrasti), purslane (Portulaca oleracea) and flower-of-an-hour (Hibiscus trionum). A 50% wettable powder formulation of 2-(4-chloro-2-fluorophenyl)-4,5,6,7-tetrahydro-2H-isoindole-1,3-dione was applied in the form of an aqueous suspension at rates of 0.125, 0.25, 0.5 and 1.0 kg/ha, each treatment replicated twice. The plots were rated for percent weed control and crop response seven weeks after treatment. Crop response was expressed on a scale of 0 = no injury to 10 = complete kill.
(§2) Test C concerned preemergence weed control in rice. The field selected contained seeds of the following weed species: crabgrass (Digitaria sanquinalis), foxtail (Setaria spp.), barnyardgrass (Echinochloa crusgalli), pigweed (Amaranthus spp.), ragweed (Ambrosia artemisiifolia), velvetleaf (Abutilon theophrasti), purslane (Portulaca oleracea) and flower-of-an-hour (Hibiscus trionum). Two varieties of rice, CSM-3 and Nato, were planted at depths of both 1 and 2 cm. In addition, rice seedlings of both varieties were transplanted into the field to be treated. Immediately thereafter, the plot was treated with an aqueous suspension of 2-(4-chloro-2-fluorophenyl)-4,5,6,7-tetrahydro-2H-isoindole-1,3-dione (Treatment I) at rates of 0.125 and 0.25 kg/ha, and an aqueous suspension of 2-(4-chlorophenyl)-4,5,6,7-tetrahydro-2H-isoindole-1,3dione (Treatment II) at rates of 0.25, 0.50, 1.00 and 2.00 kg/ha. The test chemicals had been formulated as 50% wettable powders. Overall spray volume was 540 l/ha. Ratings of percent weed control obtained and crop response were made 29 days after treatment, as described for test A. The ratings are summarized in the following Table III.

[2] = system: velvetleaf (Abutilon theophrasti); assay: Test C: preemergence weed control in rice, velvetleaf; conditions: 29 days after treatment
Excerpt: as §1, §2

[3] = system: ragweed (Ambrosia artemisiifolia); assay: Test C: preemergence weed control in rice, ragweed; conditions: 29 days after treatment
Excerpt: as §1, §2

[4] = system: lambsquarters (Chenopodium album); assay: Test B: overall spray in carrot field after weed emergence, percent control of lambsquarters; conditions: six weeks after treatment, 0.1% Tween 20
Excerpt: (§3) Test B involved a field sown to carrots and in which the following weed species emerged naturally: crabgrass (Digitaria sanquinalis), foxtails (Setaria spp.), barnyardgrass (Echinochloa crusgalli), pigweed (Amaranthus spp.), ragweed (Ambrosia artemisiifolia), velvetleaf (Abutilon theophrasti), smartweed (Polygonum spp.) and lambsquarters (Chenopodium album). Sixteen days after sowing, when all species of weeds had emerged, the plants were sprayed overall with a 50% wettable powder formulation of 2-(4-chloro-2-fluorophenyl)4,5,6,7-tetrahydro-2H-isoindole-1,3dione (Treatment I) in the form of an aqueous suspension, at rates of 0.5, 1.0, 2.0 and 4.0 kg/ha, and with 2-(4-chlorophenyl)-4,5,6,7-tetrahydro-2H-isoindole-1,3-dione (Treatment II) in the same form and at the same rates. The spray volume was 425 l/ha. The surfactant Tween 20* was added to all treatments in a concentration of 0.1% by weight. Six weeks after treatment, visual observations were made of percent weed control obtained and, for carrots, crop response.
(§4) *Tween 20 -- A trademark of ICI of America which is the reaction product of sorbitan monolaurate with an average of 20 moles of ethylene oxide.

foxtails (Setaria spp.) = assay: Test B: overall spray in carrot field after weed emergence, percent control of foxtails; conditions: six weeks after treatment, 0.1% Tween 20
Excerpt: as §3, §4

[5] = system: pigweed (Amaranthus spp.); assay: Test C: preemergence weed control in rice, pigweed; conditions: 29 days after treatment
Excerpt: as §1, §2

[6] = system: barnyardgrass (Echinochloa crusgalli); assay: Test B: overall spray in carrot field after weed emergence, percent control of barnyardgrass; conditions: six weeks after treatment, 0.1% Tween 20
Excerpt: as §3, §4

[7] = system: smartweed (Polygonum spp.); assay: Test B: overall spray in carrot field after weed emergence, percent control of smartweed; conditions: six weeks after treatment, 0.1% Tween 20
Excerpt: as §3, §4

[8] = system: flower-of-an-hour (Hibiscus trionum); assay: Test C: preemergence weed control in rice, flower-of-an-hour; conditions: 29 days after treatment
Excerpt: as §1, §2

rice, variety Nato = assay: Test C: crop response of rice Nato; conditions: 29 days, 0 = no injury to 10 = complete kill; for Crop Response, Rice Nato, 1 cm: planting depth 1 cm; for Crop Response, Rice Nato, 2 cm: planting depth 2 cm; for Crop Response, Rice Nato, T: transplanted
Excerpt: In test A, soybeans, peanuts, lima beans, green beans and squash were planted in a field infested with the following weed seeds: crabgrass (Digitaria sanquinalis), foxtails (Setaria spp.), barnyardgrass (Echinochloa crusgalli), pigweed (Amaranthus spp.), ragweed (Ambrosia artemisiifolia), velvetleaf (Abutilon theophrasti), purslane (Portulaca oleracea) and flower-of-an-hour (Hibiscus trionum). […] The plots were rated for percent weed control and crop response seven weeks after treatment. Crop response was expressed on a scale of 0 = no injury to 10 = complete kill.
Test C concerned preemergence weed control in rice. The field selected contained seeds of the following weed species: crabgrass (Digitaria sanquinalis), foxtail (Setaria spp.), barnyardgrass (Echinochloa crusgalli), pigweed (Amaranthus spp.), ragweed (Ambrosia artemisiifolia), velvetleaf (Abutilon theophrasti), purslane (Portulaca oleracea) and flower-of-an-hour (Hibiscus trionum). Two varieties of rice, CSM-3 and Nato, were planted at depths of both 1 and 2 cm. In addition, rice seedlings of both varieties were transplanted into the field to be treated. […] The test chemicals had been formulated as 50% wettable powders. Overall spray volume was 540 l/ha.

[9] = system: velvetleaf (Abutilon theophrasti); assay: Test B: overall spray in carrot field after weed emergence, percent control of velvetleaf; conditions: six weeks after treatment, 0.1% Tween 20
Excerpt: as §3, §4

[10] = system: pigweed (Amaranthus spp.); assay: Test B: overall spray in carrot field after weed emergence, percent control of pigweed; conditions: six weeks after treatment, 0.1% Tween 20
Excerpt: as §3, §4

O=C1C2=C(CCCC2)C(=O)N1c1ccc(Cl)cc1 [Treatment II, 2-(4-chlorophenyl)-4,5,6,7-tetrahydro-2H-isoindole-1,3-dione] was tested, and the “% Control, Crabgrass” value ([1]; 0.25 kg/ha) was 99%, the “% Control, Crabgrass” value ([1]; 0.50 kg/ha) was 100% and the “% Control, Crabgrass” value ([1]; 1.0 kg/ha) was 100%. The “% Control, Crabgrass” value ([1]; 2.0 kg/ha) was 100%, the “% Control, Velvetleaf” value ([2]; 0.25 kg/ha) was 100% and the “% Control, Velvetleaf” value ([2]; 0.50 kg/ha) was 100%. The “% Control, Velvetleaf” value ([2]; 1.0 kg/ha) was 100%, the “% Control, Velvetleaf” value ([2]; 2.0 kg/ha) was 100% and the “% Control, Ragweed” value ([3]; 0.25 kg/ha) was 100%. For the same compound, the “% Control, Ragweed” value ([3]; 0.50 kg/ha) was 100%, the “% Control, Ragweed” value ([3]; 1.0 kg/ha) was 100% and the “% Control, Ragweed” value ([3]; 2.0 kg/ha) was 100%. The “% Control, Lambsquarters” value ([4]; 0.5 kg/ha) was 70%, the “% Control, Lambsquarters” value ([4]; 1.0 kg/ha) was 80% and the “% Control, Lambsquarters” value ([4]; 2.0 kg/ha) was 99%. For the same compound, the “% Control, Lambsquarters” value ([4]; 4.0 kg/ha) was 99%, the “% Control, Foxtails” value (foxtails (Setaria spp.); 0.5 kg/ha) was 0% and the “% Control, Foxtails” value (foxtails (Setaria spp.); 1.0 kg/ha) was 20%. For the same compound, the “% Control, Foxtails” value (foxtails (Setaria spp.); 2.0 kg/ha) was 40%, the “% Control, Foxtails” value (foxtails (Setaria spp.); 4.0 kg/ha) was 40% and the “% Control, Pigweed” value ([5]; 0.25 kg/ha) was 100%. For the same compound, the “% Control, Pigweed” value ([5]; 0.50 kg/ha) was 100%, the “% Control, Pigweed” value ([5]; 1.0 kg/ha) was 100% and the “% Control, Pigweed” value ([5]; 2.0 kg/ha) was 100%. For the same compound, the “% Control, Barnyardgrass” value ([6]; 0.5 kg/ha) was 0%, the “% Control, Barnyardgrass” value ([6]; 1.0 kg/ha) was 20% and the “% Control, Barnyardgrass” value ([6]; 2.0 kg/ha) was 40%. The “% Control, Barnyardgrass” value ([6]; 4.0 kg/ha) was 50%, the “% Control, Smartweed” value ([7]; 0.5 kg/ha) was 70% and the “% Control, Smartweed” value ([7]; 1.0 kg/ha) was 80%. The “% Control, Smartweed” value ([7]; 2.0 kg/ha) was 80%, the “% Control, Smartweed” value ([7]; 4.0 kg/ha) was 99% and the “% Control, Flower-of-an-Hour” value ([8]; 0.25 kg/ha) was 98%. For the same compound, the “% Control, Flower-of-an-Hour” value ([8]; 0.50 kg/ha) was 100%, the “% Control, Flower-of-an-Hour” value ([8]; 1.0 kg/ha) was 100% and the “% Control, Flower-of-an-Hour” value ([8]; 2.0 kg/ha) was 100%. The “Crop Response, Rice Nato, 1 cm” value (rice, variety Nato; 0.25 kg/ha) was 5, the “Crop Response, Rice Nato, 2 cm” value (rice, variety Nato; 0.25 kg/ha) was 0 and the “Crop Response, Rice Nato, T” value (rice, variety Nato; 0.25 kg/ha) was 1. For the same compound, the “Crop Response, Rice Nato, 1 cm” value (rice, variety Nato; 0.50 kg/ha) was 8, the “Crop Response, Rice Nato, 2 cm” value (rice, variety Nato; 0.50 kg/ha) was 1 and the “Crop Response, Rice Nato, T” value (rice, variety Nato; 0.50 kg/ha) was 1. The “Crop Response, Rice Nato, 1 cm” value (rice, variety Nato; 1.0 kg/ha) was 9, the “Crop Response, Rice Nato, 2 cm” value (rice, variety Nato; 1.0 kg/ha) was 4 and the “Crop Response, Rice Nato, T” value (rice, variety Nato; 1.0 kg/ha) was 1. For the same compound, the “Crop Response, Rice Nato, 1 cm” value (rice, variety Nato; 2.0 kg/ha) was 9, the “Crop Response, Rice Nato, 2 cm” value (rice, variety Nato; 2.0 kg/ha) was 6 and the “Crop Response, Rice Nato, T” value (rice, variety Nato; 2.0 kg/ha) was 2. The “% Control, Velvetleaf” value ([9]; 0.5 kg/ha) was 70%, the “% Control, Velvetleaf” value ([9]; 1.0 kg/ha) was 80% and the “% Control, Velvetleaf” value ([9]; 2.0 kg/ha) was 100%. The “% Control, Velvetleaf” value ([9]; 4.0 kg/ha) was 100%, the “% Control, Pigweed” value ([10]; 0.5 kg/ha) was 50% and the “% Control, Pigweed” value ([10]; 1.0 kg/ha) was 70%. For the same compound, the “% Control, Pigweed” value ([10]; 2.0 kg/ha) was 90% and the “% Control, Pigweed” value ([10]; 4.0 kg/ha) was 99%.
